Laboratory results taken from patent publication US20120028995A1, “NOVEL COMPOUNDS FOR MEDICAL USE AS PEPTIDASE EFFECTORS” (IMTM GMBH, priority 2010, published 2012).
Where two headings read alike, the source gives them in different places.

Legend:
T lymphocytes (T cells) = assay: Suppression of DNA synthesis of PHA-stimulated T lymphocytes; format: cell-based; settings: tritium thymidine incorporation, read-out: Supp. DNA Synt. T-cell IC50
Method: Peripheral blood mononuclear cells (PBMC) from healthy human volunteers were freshly isolated by density gradient centrifugation. T lymphocytes (T cells) were isolated from PBMC fractions via nylon wool adherence. Both cell populations were cultured in serum free lymphocyte medium (AIMV medium, Invitrogen) and stimulated by addition of 1 μg/ml Phytohemagglutinine for 48 hours in 96 well flat-bottom microtiter plates. Test compounds were added at concentration ranges from 0.1 up to 250 μM over the total assay period.
DNA synthesis of proliferating PBMC was assessed by incorporation of nucleotide analogue bromdesoxyuridine (BrdU) and subsequent detection of BrdU by ELISA technique (Cell Proliferation Biotrak™ ELISA system, GE Health Care) according to the protocol of the manufacturer. DNA synthesis of proliferating T cells was determined by incorporation of radio labelled tritium thymidine and subsequent radio detection.
Data output was based on raw data and calculation of relative proliferation response in relation to PHA-activated T cells in the absence of test compound (100% control). The IC50 value of proliferation suppression was assessed by graphical evaluation.

[1] = molecular target: T1, aminopeptidase N (APN), purified recombinant human enzyme (Homo sapiens, UniProt P15144); assay: Inhibition of enzymatic activity of aminopeptidase N (fluorogenic substrate hydrolysis); format: biochemical; settings: highest test item concentration 25 μM; for IC50: read-out: meas. IC50 (APN)
T1 construct: made in house; host or cells: ECV cells (transfected)
Method: The inhibition of the enzymatic activity of aminopeptidase N (APN) was measured by using purified, recombinant human enzyme (purified from transfected ECV cells, final enzyme concentration approx. 1 nM). […] The assay was performed in 0.05M TRIS/HCl puffer pH 7.5, supplemented with 0.05% Triton (v/v), 0.05% BSA (w/v), 2 mM MgCl2.
The aminopeptidase acitivities wer assessed by the hydrolysis of the fluorogenic substrates H-Ala-4-amino-7-methyl coumarine (abbreviation of fluorogenic group AMC; purchased from Bachem) or (Ala-)2-Rhodamine 110 (abbreviation R110). The final substrate concentrations were again 50 and 1 μM, respectively.
(§1) The assay was performed in white microtitre plates for fluorescence measurements. The test items, substrate and enzyme were diluted in assay buffer. The highest test item concentration used was 25 μM. For the calculation of IC50 values, at least 16 log 2-dilutions of each test item were analyzed. As controls, the DPIV activity in the absence of test items as well as the spontaneous hydrolysis of the substrate was determined.
The release of the fluorescent hydrolysis products AMC and R110 was measured as described above for DPIV substrates.

NHEK cells = assay: Inhibition of DNA synthesis and proliferation of normal human epidermal keratinocytes (NHEK); format: cell-based; settings: EGF-stimulated NHEK, BrdU incorporation, read-out: Supp. DNA Synt. NHEK IC50
Method: NHEK cells (primary cells from person) were purchased from PromoCell. For these assay the adherent cells were cultured in serum-free Keratinocyte Growth medium 2 supplemented with epidermal growth factor (EGF) and bovine pituitary extract for 48 hours in flat-bottom microtiter plates. EGF stimulates the DNA synthesis and proliferation of these cells. Test items were added in concentrations from 0.1 up to 100 μM.
The DNA synthesis was assessed by incorporation of bromdesoxyuridine (BrdU) and subsequent detection of BrdU by ELISA technique. Based on these raw data the relative proliferation response in relation to cells cultured in the absence of test compound (100% control) was calculated. IC50 values of proliferation suppression were assessed by computer-assisted graphical evaluation.

[2] = molecular target: T2, purified, recombinant human DPIV (Homo sapiens, UniProt P27487); assay: Inhibition of enzymatic activity of DPIV (fluorogenic substrate hydrolysis); format: biochemical; settings: highest test item concentration 25 μM; for IC50: read-out: meas. IC50 (DPIV)
T2 construct: made in house; host or cells: Sf9 insect cells
Method: (§2) The inhibition of the enzymatic activity of DPIV and related enzymes was measured by using purified, recombinant human DPIV (purified from transfected Sf9 cells, final enzyme concentration approx. 1 nM) as well as purified, recombinant DP8 and DP9 (purchased from Biomol). The assay was performed in 0.05M TRIS/HCl puffer pH 7.5, supplemented with 0.05% Triton (v/v), 0.05% BSA (w/v), 2 mM MgCl2.
(§3) The enzymatic activity of DPIV was assessed by the hydrolysis of the fluorogenic substrates H-Gly-Pro-4-amino-7-methyl coumarine (abbreviation of fluorogenic group AMC; purchased from Bachem) or (Ala-Pro)2-Rhodamine 110 (abbreviation R110). The final substrate concentrations were 50 μM or 1 μM, respectively.
as §1
(§4) The release of the fluorescent hydrolysis product AMC was measured at an excitation wavelength of 380 nm and an emission wavelength of 460 nm by using a microtitre fluorescence reader immediately after substrate addition as well as after 30, 60 and 120 min. The hydrolysis of the substrate (Ala-Pro)2-Rhodamine 110 was determined at an exitation wavelength of 488 nm and emission wavelength of 530 nm.

[3] = test system: purified, recombinant DP8 and DP9; assay: Inhibition of enzymatic activity of DP8/9; format: biochemical; settings: highest test item concentration 25 μM; for IC50: read-out: meas. IC50 (DP8/9)
Method: as §2, §3, §1, §4

SZ95 cells = assay: Inhibition of DNA synthesis and proliferation of immortalized human sebocytes SZ95; format: cell-based; settings: EGF-stimulated SZ95 sebocytes, tritium thymidine incorporation, read-out: Supp. DNA Synt. SZ95 IC50
Method: The immortalized human sebocyte line SZ95 was provided by Prof. C Zouboulis [C C Zouboulis, H Seltmann, H Neitzel, C E Orfanos, Establishment and characterization of an immortalized human sebaceous gland cell line (SZ95). J. Invest. Dermatol. 113(6):1011-1020 (1999), the entire disclosure of which is incorporated by reference herein]. These adherent growing cells were cultured in serum-free Sebomed Complete (Biochrom). Recombinant EGF was added in order to stimulate DNA synthesis and proliferation of the SZ95 cells. Test items were added in concentrations from 0.1 up to 100 μM.
The DNA synthesis of proliferating cells was detected by incorporation of radiolabelled tritium thymidine (3HT) and counting at a beta counter. Based on these raw data the relative proliferation response in relation to cells cultured in the absence of test compound (100% control) was calculated. IC50 values of proliferation suppression were assessed by computer-assisted graphical evaluation.

[4] = molecular target: T3, cytosolic aminopeptidase (cAAP) purified from Jurkat cells (Homo sapiens, UniProt P55786); assay: Inhibition of enzymatic activity of cytosolic aminopeptidase (cAAP); format: biochemical; settings: highest test item concentration 25 μM; for IC50: read-out: meas. IC50 (cAAP)
T3 construct: The cytosolic aminopeptidase (cAAP) was purified from Jurkat cells; endogenous in cells; host or cells: Jurkat cells (enzyme purified from them)

[5] = PHA-stimulated human T cells, 48 hours

T1 sequence (P15144 whole entry): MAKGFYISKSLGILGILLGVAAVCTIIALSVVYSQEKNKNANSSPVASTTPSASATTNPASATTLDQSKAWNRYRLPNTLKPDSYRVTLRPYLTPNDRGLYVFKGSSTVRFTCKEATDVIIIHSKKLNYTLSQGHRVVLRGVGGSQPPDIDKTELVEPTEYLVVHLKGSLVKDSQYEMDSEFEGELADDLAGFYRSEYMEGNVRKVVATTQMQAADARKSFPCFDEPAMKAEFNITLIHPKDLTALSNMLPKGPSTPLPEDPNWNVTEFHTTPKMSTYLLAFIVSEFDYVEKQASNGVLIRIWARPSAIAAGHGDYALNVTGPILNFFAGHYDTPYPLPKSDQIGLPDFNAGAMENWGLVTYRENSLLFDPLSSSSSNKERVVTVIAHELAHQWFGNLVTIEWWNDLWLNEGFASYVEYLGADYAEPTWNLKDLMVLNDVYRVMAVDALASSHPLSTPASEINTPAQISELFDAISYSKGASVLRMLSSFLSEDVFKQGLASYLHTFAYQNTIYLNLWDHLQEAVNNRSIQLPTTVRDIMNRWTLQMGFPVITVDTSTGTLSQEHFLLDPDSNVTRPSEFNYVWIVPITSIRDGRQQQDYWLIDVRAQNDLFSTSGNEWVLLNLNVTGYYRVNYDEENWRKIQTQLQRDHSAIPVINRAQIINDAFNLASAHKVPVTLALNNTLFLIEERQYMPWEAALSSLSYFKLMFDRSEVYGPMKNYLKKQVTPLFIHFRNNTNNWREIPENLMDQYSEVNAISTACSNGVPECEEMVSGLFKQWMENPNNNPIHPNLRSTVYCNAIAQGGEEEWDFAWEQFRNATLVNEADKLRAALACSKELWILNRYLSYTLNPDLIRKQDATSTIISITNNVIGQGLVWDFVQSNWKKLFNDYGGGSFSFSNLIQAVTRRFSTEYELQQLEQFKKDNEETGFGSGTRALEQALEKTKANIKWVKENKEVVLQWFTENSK
T2 sequence (P27487 whole entry): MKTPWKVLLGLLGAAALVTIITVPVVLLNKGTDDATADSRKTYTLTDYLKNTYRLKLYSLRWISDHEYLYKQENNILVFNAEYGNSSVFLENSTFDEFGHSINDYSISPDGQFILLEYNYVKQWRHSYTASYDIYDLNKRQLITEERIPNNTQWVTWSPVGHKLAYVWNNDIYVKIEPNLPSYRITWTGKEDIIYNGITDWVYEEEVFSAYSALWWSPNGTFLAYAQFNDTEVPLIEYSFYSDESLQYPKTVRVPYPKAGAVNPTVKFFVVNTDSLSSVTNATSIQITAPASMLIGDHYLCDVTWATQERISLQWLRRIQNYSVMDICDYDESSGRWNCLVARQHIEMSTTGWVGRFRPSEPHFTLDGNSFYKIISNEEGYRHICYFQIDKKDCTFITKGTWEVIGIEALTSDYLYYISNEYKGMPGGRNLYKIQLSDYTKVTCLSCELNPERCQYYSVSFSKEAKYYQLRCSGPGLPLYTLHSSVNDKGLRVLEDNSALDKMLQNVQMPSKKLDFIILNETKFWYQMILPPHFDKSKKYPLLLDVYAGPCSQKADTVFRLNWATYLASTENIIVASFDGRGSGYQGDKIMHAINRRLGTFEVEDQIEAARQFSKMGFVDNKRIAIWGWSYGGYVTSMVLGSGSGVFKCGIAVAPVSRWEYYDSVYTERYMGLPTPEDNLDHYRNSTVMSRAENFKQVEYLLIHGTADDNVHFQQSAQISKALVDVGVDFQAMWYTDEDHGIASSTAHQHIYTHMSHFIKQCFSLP
T3 sequence (P55786 whole entry): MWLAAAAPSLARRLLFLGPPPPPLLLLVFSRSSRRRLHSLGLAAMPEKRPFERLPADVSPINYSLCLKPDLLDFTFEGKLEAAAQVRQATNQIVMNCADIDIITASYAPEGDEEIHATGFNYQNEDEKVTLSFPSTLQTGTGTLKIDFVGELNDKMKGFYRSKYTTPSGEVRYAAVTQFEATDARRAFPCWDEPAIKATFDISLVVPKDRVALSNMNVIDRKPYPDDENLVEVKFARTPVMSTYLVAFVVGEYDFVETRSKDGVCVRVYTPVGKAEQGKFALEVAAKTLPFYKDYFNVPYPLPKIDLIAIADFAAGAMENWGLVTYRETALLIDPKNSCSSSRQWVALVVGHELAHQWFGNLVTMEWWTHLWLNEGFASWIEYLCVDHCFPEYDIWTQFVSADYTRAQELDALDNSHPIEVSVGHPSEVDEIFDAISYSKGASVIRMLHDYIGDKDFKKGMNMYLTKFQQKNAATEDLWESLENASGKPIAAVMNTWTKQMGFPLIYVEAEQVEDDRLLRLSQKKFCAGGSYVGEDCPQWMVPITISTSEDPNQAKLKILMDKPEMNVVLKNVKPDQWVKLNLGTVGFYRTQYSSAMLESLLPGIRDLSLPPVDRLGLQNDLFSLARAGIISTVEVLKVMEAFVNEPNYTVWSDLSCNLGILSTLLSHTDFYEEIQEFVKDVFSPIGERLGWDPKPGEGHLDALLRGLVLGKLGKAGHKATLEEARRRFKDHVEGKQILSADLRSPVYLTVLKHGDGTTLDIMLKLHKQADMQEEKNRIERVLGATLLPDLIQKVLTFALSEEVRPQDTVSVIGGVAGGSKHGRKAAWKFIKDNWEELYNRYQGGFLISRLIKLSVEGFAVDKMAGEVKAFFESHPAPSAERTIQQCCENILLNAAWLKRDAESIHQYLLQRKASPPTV

Row | SMILES | IC50 (T lymphocytes (T cells); [5]) [µM] | meas. IC50 (APN) [1] | IC50 (NHEK cells; 48 hours) [µM] | meas. IC50 (DPIV) [2] | meas. IC50 (DP8/9) [3] | IC50 (SZ95 cells) [µM] | meas. IC50 (cAAP) [4] | IC50 (T lymphocytes (T cells); Homo sapiens, T-cell, 48 h) [µM] | IC50 [1] [µM] | IC50 (NHEK cells; Homo sapiens, NHEK, 48 h) [µM] | IC50 [3] [µM] | IC50 (SZ95 cells; Homo sapiens) [µM] | IC50 [4] [µM] | IC50 [2] [µM] | IC50 (T lymphocytes (T cells); T-cell, PHA-stimulated human T cells, 48 hours) [µM] | IC50 (NHEK cells; Homo sapiens, 48 hours) [µM]
1 | CC(C)(CNC(=O)CC(Cc1cc(F)ccc1F)NC(=O)OC(C)(C)C)CNC(=O)C(O)C(COCc1ccccc1)NC(=O)OC(C)(C)C (stereo not drawn) [Compound C19.024] | 11.4 | no in- hibition | 21.1 | No in- hibition | no in- hibition | 13.3 | no in- hibition |  |  |  |  |  |  |  |  | 
2 | CC(C)(CNC(=O)CC(Cc1cc(F)ccc1F)NC(=O)OC(C)(C)C)CNC(=O)C(O)C(COCc1ccccc1)NC(=O)OC(C)(C)C (stereo not drawn) [Compound C19.025] | 12.3 | no in- hibition | 17.3 | No in- hibition | no in- hibition | 15.4 | no in- hibition |  |  |  |  |  |  |  |  | 
3 | CC(C)(CNC(=O)CC(Cc1cc(F)ccc1F)NC(=O)OCc1ccccc1)CNC(=O)C(O)C(N)COCc1ccccc1 (stereo not drawn) [Compound C19.026] |  |  |  | No in- hibition |  |  |  | 12.2 | 1 | 8.9 | 7.3 | 22.7 | 0.5 |  |  | 
4 | CC(C)(CNC(=O)CC(Cc1cc(F)ccc1F)NC(=O)OCc1ccccc1)CNC(=O)C(O)C(COCc1ccccc1)NC(=O)OC(C)(C)C (stereo not drawn) [Compound C19.027] |  | no in- hibition |  | No in- hibition | no in- hibition |  | no in- hibition | 5.2 |  | 42.1 |  | 8.53 |  |  |  | 
5 | CC(C)(CNC(=O)CC(N)Cc1cc(F)ccc1F)CNC(=O)C(O)C(COCc1ccccc1)NC(=O)OC(C)(C)C (stereo not drawn) [Compound C19.028] |  | no in- hibition |  |  |  |  | no in- hibition | 9 |  | 31.4 | 1.4 | 49.4 |  | 0.17 |  | 
6 | CC(C)NC(CC(=O)NCC(C)(C)CNC(=O)C(O)C(N)COCc1ccccc1)Cc1cc(F)ccc1F (stereo not drawn) [Compound C19.029] |  |  |  |  |  |  |  | 29.4 | 0.59 | 34.8 | 24.3 | 92.7 | 0.33 | 14.5 |  | 
7 | CC(C)(CNC(=O)CC(Cc1cc(F)ccc1F)Nc1ccc([N+](=O)[O-])c2nonc12)CNC(=O)C(O)C(COCc1ccccc1)Nc1ccc([N+](=O)[O-])c2nonc12 (stereo not drawn) [Compound C19.030] |  | no in- hibition |  | No in- hibition | no in- hibition |  | no in- hibition |  |  |  |  | 29.7 |  |  | 18.2 | 7.55
8 | NC(CNC(=O)c1cccc(NC(=O)C(O)C(N)COCc2ccccc2)c1)Cc1cc(F)ccc1F (stereo not drawn) [Compound C19.031] |  |  |  |  |  |  |  | 58.2 | 0.012 | 20.1 | 13.3 | ≥ 119 | 0.18 | 2.3 |  | 
9 | NC(CCCCNC(=O)C(O)C(N)Cc1ccccc1)C(=O)N1CCSC1 (stereo not drawn) [Compound C21.001] |  |  |  |  |  |  |  | 90.1 | 0.178 | 77 | 0.02 | 65.5 | 0.066 | 0.11 |  | 
10 | CC(C)(C)OC(=O)NC(CCCCNC(=O)C(O)C(Cc1ccccc1)NC(=O)OC(C)(C)C)C(=O)N1CCSC1 (stereo not drawn) [Compound C21.002] |  | no in- hibition |  | no in- hibition | no in- hibition |  | no in- hibition | 55.1 |  | 49.3 |  | 61.6 |  |  |  | 
11 | NC(CCCCNC(=O)c1cccc(NC(=O)C(O)C(N)Cc2ccccc2)c1)C(=O)N1CCSC1 (stereo not drawn) [Compound C21.003] |  |  |  |  |  |  |  | 157 | 0.62 | 62 | 0.054 | ≥ 200 | 0.13 | 0.07 |  | 
12 | CC(C)(C)OC(=O)NC(CCCCNC(=O)c1cccc(NC(=O)C(O)C(Cc2ccccc2)NC(=O)OC(C)(C)C)c1)C(=O)N1CCSC1 (stereo not drawn) [Compound C21.004] |  | no in- hibition |  | no in- hibition | no in- hibition |  | no in- hibition | 12 |  | 13.9 |  | 19.4 |  |  |  | 
13 | CC(=O)SC(C(=O)NCCCCC(NC(=O)OC(C)(C)C)C(=O)N1CCSC1)C(Cc1ccccc1)NC(=O)OC(C)(C)C (stereo not drawn) [Compound C22.001] |  | no in- hibition |  | no in- hibition | no in- hibition |  |  | 136 |  | ≥ 200 |  | 57.1 | 0.57 |  |  | 
14 | CC(C)(C)OC(=O)NC(CCCCNC(=O)C(S)C(Cc1ccccc1)NC(=O)OC(C)(C)C)C(=O)N1CCSC1 (stereo not drawn) [Compound C22.002] |  | no in- hibition |  | no in- hibition | no in- hibition |  |  | 54.1 |  | 85.2 |  | ≥ 200 | 1 |  |  | 
15 | NC(CCCCNC(=O)C(S)C(N)Cc1ccccc1)C(=O)N1CCSC1 (stereo not drawn) [Compound C22.003] |  |  |  |  |  |  |  | 30.2 | 3.79 | 38.9 | 0.34 | 75.2 | 3.5 | 0.032 |  | 
